This note sets out measurements from patent publication US20170197979A1, “BENZOTHIADIAZOLAMINES” (BAYER PHARMA AKTIENGESELLSCHAFT, priority 2014, published 2017).

In the assay the target is T1, human full-length MKNK1 (Homo sapiens, UniProt Q9BUB5, T385D).
T1 construct: GST (N); purchased Carna Biosciences 02-145; host or cells: insect cells (baculovirus expression system)
T1 sequence (Q9BUB5 1-424 isoform Q9BUB5-2 T344D): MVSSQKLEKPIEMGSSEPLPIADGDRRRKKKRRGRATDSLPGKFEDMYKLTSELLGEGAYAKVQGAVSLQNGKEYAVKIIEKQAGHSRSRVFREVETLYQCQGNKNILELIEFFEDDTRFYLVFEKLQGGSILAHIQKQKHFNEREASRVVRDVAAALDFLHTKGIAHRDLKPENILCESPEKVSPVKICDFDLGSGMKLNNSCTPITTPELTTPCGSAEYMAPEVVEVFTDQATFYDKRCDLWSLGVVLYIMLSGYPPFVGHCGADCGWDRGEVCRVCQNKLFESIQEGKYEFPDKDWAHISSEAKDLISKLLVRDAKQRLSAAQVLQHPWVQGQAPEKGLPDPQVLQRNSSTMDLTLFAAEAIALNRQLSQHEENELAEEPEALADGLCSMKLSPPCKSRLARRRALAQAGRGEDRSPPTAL
Description: MKNK1 kinase high ATP assay (TR-FRET). The assay is classed as biochemical. The settings on record: TR-FRET, high ATP (2 mM final), 15 min preincubation with enzyme, GST-MKNK1 (T344D); read-out: MKNK1 IC50. As for the experimental part:
MKNK1 Kinase High ATP Assay
MKNK1-inhibitory activity at high ATP of compounds of the present invention after their preincubation with MKNK1 was quantified employing the TR-FRET-based MKNK1 high ATP assay as described in the following paragraphs.
A recombinant fusion protein of Glutathione-S-Transferase (GST, N-terminally) and human full-length MKNK1 (amino acids 1-424 and T344D of accession number BAA 19885.1), expressed in insect cells using baculovirus expression system and purified via glutathione sepharose affinity chromatography, was purchased from Carna Biosciences (product no 02-145) and used as enzyme. As substrate for the kinase reaction the biotinylated peptide biotin-Ahx-IKKRKLTRRKSLKG (C-terminus in amide form) was used, which can be purchased e.g. from the company Biosyntan (Berlin-Buch, Germany).
For the assay 50 nL of a 100 fold concentrated solution of the test compound in DMSO was pipetted into a black low volume 384 well microtiter plate (Greiner Bio-One, Frickenhausen, Germany), 2 μL of a solution of MKNK1 in aqueous assay buffer [50 mM HEPES pH 7.5, 5 mM MgCl2, 1.0 mM dithiothreitol, 0.005% (v/v) Nonidet-P40 (Sigma)] was added and the mixture was incubated for 15 min at 22° C. to allow pre-binding of the test compounds to the enzyme before the start of the kinase reaction. Then the kinase reaction was started by the addition of 3 μL of a solution of adenosine-tri-phosphate (ATP, 3.3 mM=>final conc. in the 5 μL assay volume is 2 mM) and substrate (0.1 μM=>final conc. in the 5 μL assay volume is 0.06 μM) in assay buffer and the resulting mixture was incubated for a reaction time of 30 min at 22° C. The concentration of MKNK1 was adjusted depending of the activity of the enzyme lot and was chosen appropriate to have the assay in the linear range, typical concentrations were in the range of 0.003 μg/mL. The reaction was stopped by the addition of 5 μL of a solution of TR-FRET detection reagents (5 nM streptavidine-XL665 [Cisbio Bioassays, Codolet, France] and 1 nM anti-ribosomal protein S6 (pSer236)-antibody from Invitrogen [#44921G] and 1 nM LANCE EU-W1024 labeled ProteinG [Perkin-Elmer, product no. AD0071]) in an aqueous EDTA-solution (100 mM EDTA, 0.1% (w/v) bovine serum albumin in 50 mM HEPES pH 7.5).
The resulting mixture was incubated for 1 h at 22° C. to allow the formation of complex between the phosphorylated biotinylated peptide and the detection reagents. Subsequently the amount of phosphorylated substrate was evaluated by measurement of the resonance energy transfer from the Eu-chelate to the streptavidine-XL. Therefore, the fluorescence emissions at 620 nm and 665 nm after excitation at 350 nm were measured in a TR-FRET reader, e.g. a Rubystar (BMG Labtechnologies, Offenburg, Germany) or a Viewlux (Perkin-Elmer). The ratio of the emissions at 665 nm and at […] was taken as the measure for the amount of phosphorylated substrate. The data were normalised (enzyme reaction without inhibitor=0% inhibition, all other assay components but no enzyme=100% inhibition).
For orientation: Time-resolved FRET reads energy transfer from a long-lived donor to a nearby acceptor.
`CC(C)N(C)C(=O)[C@H]1CCc2c(sc3ncnc(Nc4ccc5nnsc5c4)c23)C1` [Example 23, (7S)-4-(1,2,3-Benzothiadiazol-6-ylamino)-N-methyl-N-(propan-2-yl)-5,6,7,8-tetrahydro[1]benzothieno[2,3-d]pyrimidine-7-carboxamide]: the IC50 – broadly, the midpoint of a concentration-inhibition curve – amounted to 41 nM. Take `CN(CCNC(=O)OC(C)(C)C)C(=O)[C@H]1CCc2c(sc3ncnc(Nc4ccc5nnsc5c4)c23)C1` [Example 22, tert-Butyl {2-[{[(7S)-4-(1,2,3-benzothiadiazol-6-ylamino)-5,6,7,8-tetrahydro[1]benzothieno[2,3-d]pyrimidin-7-yl]carbonyl}(methyl)amino]ethyl}carbamate]: the 50% inhibitory concentration (IC50) is 14 nM.

Take `COc1cc2nnsc2cc1Nc1ncnc2sc3c(c12)CC[C@H](C(=O)N1CC[C@@H](N(C)C)C1)C3` [Example 52, [(3R)-3-(Dimethylamino)pyrrolidin-1-yl]{(7S)-4-[(5-methoxy-1,2,3-benzothiadiazol-6-yl)amino]-5,6,7,8-tetrahydro[1]benzothieno[2,3-d]pyrimidin-7-yl}methanone]: the IC50 turned out to be 2.1 nM. For the compound `COc1cc2nnsc2cc1Nc1ncnc2sc3c(c12)CC[C@H](C(=O)N1CCC(N(C)CCN(C)C)CC1)C3` [Example 48, (4-{[2-(dimethylamino)ethyl](methyl)amino}piperidin-1-yl){(7S)-4-[(5-methoxy-1,2,3-benzothiadiazol-6-yl)amino]-5,6,7,8-tetrahydro[1]benzothieno[2,3-d]pyrimidin-7-yl}methanone], the IC50 worked out at 2 nM. As for `COc1cc2nnsc2cc1Nc1ncnc2sc3c(c12)CC[C@H](C(=O)N1CC(N(C)C)C1)C3` [Example 41, [3-(Dimethylamino)azetidin-1-yl]{(7S)-4-[(5-methoxy-1,2,3-benzothiadiazol-6-yl)amino]-5,6,7,8-tetrahydro[1]benzothieno[2,3-d]pyrimidin-7-yl}methanone], the IC50 is 0.6 nM. As for `CCN(CCN(C)C)C(=O)[C@H]1CCc2c(sc3ncnc(Nc4cc5snnc5cc4OC)c23)C1` [Example 55, (7S)—N-[2-(Dimethylamino)ethyl]-N-ethyl-4-[(5-methoxy-1,2,3-benzothiadiazol-6-yl)amino]-5,6,7,8-tetrahydro[1]benzothieno[2,3-d]pyrimidine-7-carboxamide], the figure is 8.9 nM. With `CC1(O)CN(C(=O)[C@H]2CCc3c(sc4ncnc(Nc5ccc6nnsc6c5)c34)C2)C1` [Example 33, [(7S)-4-(1,2,3-Benzothiadiazol-6-ylamino)-5,6,7,8-tetrahydro[1]benzothieno[2,3-d]pyrimidin-7-yl](3-hydroxy-3-methylazetidin-1-yl)methanone], the IC50 was determined as 8 nM. For the compound `CN(C)C1CCN(C(=O)[C@H]2CCc3c(sc4ncnc(Nc5ccc6nnsc6c5)c34)C2)CC1` [Example 15, [(7S)-4-(1,2,3-Benzothiadiazol-6-ylamino)-5,6,7,8-tetrahydro[1]benzothieno[2,3-d]pyrimidin-7-yl][4-(dimethylamino)piperidin-1-yl]methanone], the IC50 was determined as 10 nM.

Take `COc1cc2nnsc2cc1Nc1ncnc2sc3c(c12)CC[C@H](C(=O)N1CC(C)(O)C1)C3` [Example 45, (3-Hydroxy-3-methylazetidin-1-yl){(7S)-4-[(5-methoxy-1,2,3-benzothiadiazol-6-yl)amino]-5,6,7,8-tetrahydro[1]benzothieno[2,3-d]pyrimidin-7-yl}methanone]: the 50% inhibitory concentration (IC50) stood at 1.5 nM. `COc1cc2nnsc2cc1Nc1ncnc2sc3c(c12)CC[C@H](C(=O)N1CCN(CCN(C)C)CC1)C3` [Example 49, {4-[2-(Dimethylamino)ethyl]piperazin-1-yl}{(7S)-4-[(5-methoxy-1,2,3-benzothiadiazol-6-yl)amino]-5,6,7,8-tetrahydro[1]benzothieno[2,3-d]pyrimidin-7-yl}methanone]: the half-inhibitory concentration (IC50) came to 1.7 nM. The result for `O=C([C@H]1CCc2c(sc3ncnc(Nc4ccc5nnsc5c4)c23)C1)N1CC(F)(F)C1` [Example 31, [(7S)-4-(1,2,3-Benzothiadiazol-6-ylamino)-5,6,7,8-tetrahydro[1]benzothieno[2,3-d]pyrimidin-7-yl](3,3-difluoroazetidin-1-yl)methanone] reads 14 nM. As for `CN(C)C(=O)[C@H]1CCc2c(sc3ncnc(Nc4ccc5nnsc5c4)c23)C1` [Example 1, (7S)-4-(1,2,3-Benzothiadiazol-6-ylamino)-N,N-dimethyl-5,6,7,8-tetrahydro[1]benzothieno[2,3-d]pyrimidine-7-carboxamide], the IC50 is 16 nM. On to `COc1cc2nnsc2cc1Nc1ncnc2sc3c(c12)CC[C@H](C(=O)N1CCC1)C3` [Example 46, Azetidin-1-yl{(7S)-4-[(5-methoxy-1,2,3-benzothiadiazol-6-yl)amino]-5,6,7,8-tetrahydro[1]benzothieno[2,3-d]pyrimidin-7-yl}methanone], for which the IC50 was determined as 182 nM. In the case of `COc1cc2nnsc2cc1Nc1ncnc2sc3c(c12)CC[C@H](C(=O)N1C[C@H](O)[C@@H](O)C1)C3` [Example 57, [(3S,4S)-3,4-Dihydroxypyrrolidin-1-yl]{(7S)-4-[(5-methoxy-1,2,3-benzothiadiazol-6-yl)amino]-5,6,7,8-tetrahydro[1]benzothieno[2,3-d]pyrimidin-7-yl}methanone], the IC50 was 1.6 nM.

On to `CN(C)CCCN(C)C(=O)[C@H]1CCc2c(sc3ncnc(Nc4ccc5nnsc5c4)c23)C1` [Example 30, (7S)-4-(1,2,3-Benzothiadiazol-6-ylamino)-N-[3-(dimethylamino)propyl]-N-methyl-5,6,7,8-tetrahydro[1]benzothieno[2,3-d]pyrimidine-7-carboxamide], for which the IC50 amounted to 8.1 nM. As for `CN(C)CCN(C)C1CCN(C(=O)[C@H]2CCc3c(sc4ncnc(Nc5ccc6nnsc6c5)c34)C2)CC1` [Example 21, [(7S)-4-(1,2,3-Benzothiadiazol-6-ylamino)-5,6,7,8-tetrahydro[1]benzothieno[2,3-d]pyrimidin-7-yl](4-{[2-(dimethylamino)ethyl](methyl)amino}piperidin-1-yl)methanone], the figure is 1.3 nM; as for `COc1cc2nnsc2cc1Nc1ncnc2sc3c(c12)CC[C@H](C(=O)N1CC(C#N)C1)C3` [Example 44, 1-({(7S)-4-[(5-Methoxy-1,2,3-benzothiadiazol-6-yl)amino]-5,6,7,8-tetrahydro[1]benzothieno[2,3-d]pyrimidin-7-yl}carbonyl)azetidine-3-carbonitrile], 1.7 nM. Consider `COc1cc2nnsc2cc1Nc1ncnc2sc3c(c12)CC[C@H](C(=O)N(C)CC(C)(C)O)C3` [Example 36, (7S)—N-(2-Hydroxy-2-methylpropyl)-4-[(5-methoxy-1,2,3-benzothiadiazol-6-yl)amino]-N-methyl-5,6,7,8-tetrahydro[1]benzothieno[2,3-d]pyrimidine-7-carboxamide], for which the IC50 was 0.8 nM.

Turning to `C[C@@H]1COC[C@H](C)N1C(=O)[C@H]1CCc2c(sc3ncnc(Nc4ccc5nnsc5c4)c23)C1` [Example 7, [(7S)-4-(1,2,3-Benzothiadiazol-6-ylamino)-5,6,7,8-tetrahydro[1]benzothieno[2,3-d]pyrimidin-7-yl][(3R,5S)-3,5-dimethylmorpholin-4-yl]methanone], the IC50 came to 5.8 nM. As for `COc1cc2nnsc2cc1Nc1ncnc2sc3c(c12)CC[C@H](C(=O)N(C)CC(=O)N(C)C)C3` [Example 42, (7S)—N-[2-(Dimethylamino)-2-oxoethyl]-4-[(5-methoxy-1,2,3-benzothiadiazol-6-yl)amino]-N-methyl-5,6,7,8-tetrahydro[1]benzothieno[2,3-d]pyrimidine-7-carboxamide], the figure is 0.8 nM.

In the case of `CN(C(=O)[C@H]1CCc2c(sc3ncnc(Nc4ccc5nnsc5c4)c23)C1)S(C)(=O)=O` [Example 11, (7S)-4-(1,2,3-Benzothiadiazol-6-ylamino)-N-methyl-N-(methylsulfonyl)-5,6,7,8-tetrahydro[1]benzothieno[2,3-d]pyrimidine-7-carboxamide], the IC50 was determined as 12 nM.
